Assay results: ChEMBL document CHEMBL1201862, “PubChem BioAssay data set” (2004)
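Step 1: Grow cells in 96-well plates. Step 2: Expose to compound for 48 hours at 5 concentrations. Step 3: Interpolate endpoints linearly; if unreached, use highest concentration. GI50 = concentration required for 50% inhibition of growth.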 Calls of active or inactive are those of the source. No stated cut-off is given here; in the data, active = GI50 up to about 1.1 µM and inactive = higher.

Assays:
Test in all cases: inhibition of tumour cell growth, NCI panel, 48 h
U-251 = test system: U-251
K562 = test system: K562
A549 = test system: A549
SK-MEL-5 = test system: SK-MEL-5
SW-620 = test system: SW-620
COLO 205 = test system: COLO 205
NCI-H23 = test system: NCI-H23
EKVX = test system: EKVX
OVCAR-8 = test system: OVCAR-8
SF-539 = test system: SF-539
SK-MEL-28 = test system: SK-MEL-28
OVCAR-3 = test system: OVCAR-3
CCRF-CEM = test system: CCRF-CEM
SNB-19 = test system: SNB-19
LOX IMVI = test system: LOX IMVI
SK-OV-3 = test system: SK-OV-3
OVCAR-4 = test system: OVCAR-4
HCT-116 = test system: HCT-116
NCI-H226 = test system: NCI-H226
SN12C = test system: SN12C

SMILES	GI50 (U-251)	GI50 (K562)	GI50 (A549)	GI50 (SK-MEL-5)	GI50 (SW-620)	GI50 (COLO 205)	GI50 (NCI-H23)	GI50 (EKVX)	GI50 (OVCAR-8)	GI50 (SF-539)	GI50 (SK-MEL-28)	GI50 (OVCAR-3)	GI50 (CCRF-CEM)	GI50 (SNB-19)	GI50 (LOX IMVI)	GI50 (SK-OV-3)	GI50 (OVCAR-4)	GI50 (HCT-116)	GI50 (NCI-H226)	GI50 (SN12C)
CCOC(=O)c1csc(NC(=O)C(C)N2CCOCC2)n1 (stereo not given)	> 100 µM (inactive)	> 100 µM (inactive)	> 100 µM (inactive)	> 100 µM (inactive)	> 100 µM (inactive)	> 100 µM (inactive)	> 100 µM (inactive)	> 100 µM (inactive)	> 100 µM (inactive)	> 100 µM (inactive)	> 100 µM (inactive)	> 100 µM (inactive)	> 100 µM (inactive)	> 100 µM (inactive)	> 100 µM (inactive)	> 100 µM (inactive)	> 100 µM (inactive)			
CSc1ncc2c(n1)-c1ccccc1OC2NC1CC1 (stereo not given)	76.2 µM (inactive)	54 µM (inactive)	> 100 µM (inactive)	78.3 µM (inactive)	> 100 µM (inactive)	> 100 µM (inactive)	73.6 µM (inactive)	51.2 µM (inactive)	71.4 µM (inactive)	> 100 µM (inactive)		57.5 µM (inactive)	31.4 µM (inactive)	> 100 µM (inactive)	92 µM (inactive)	> 100 µM (inactive)	30.6 µM (inactive)	64.1 µM (inactive)	25.5 µM (inactive)	63.5 µM (inactive)
Cc1cc(C)c2c(c1)CC1(Cc3c(C)ccc(C)c3C1=O)C2=O (stereo not given)	> 100 µM (inactive)	> 100 µM (inactive)	> 100 µM (inactive)	> 100 µM (inactive)	> 100 µM (inactive)	> 100 µM (inactive)		> 100 µM (inactive)	> 100 µM (inactive)	> 100 µM (inactive)	> 100 µM (inactive)	> 100 µM (inactive)	> 100 µM (inactive)	> 100 µM (inactive)			> 100 µM (inactive)		> 100 µM (inactive)	> 100 µM (inactive)
C1=CC=C2NCCCCCCC/N=C3/C=CC=CC=C3NCCCCCCC/N=C\2C=C1	10 µM (inactive)	30.1 µM (inactive)	> 100 µM (inactive)		79.6 µM (inactive)	> 100 µM (inactive)	11.9 µM (inactive)	> 100 µM (inactive)	40.1 µM (inactive)	30.9 µM (inactive)		10 µM (inactive)	36.8 µM (inactive)	> 100 µM (inactive)	54.2 µM (inactive)	10 µM (inactive)	64.3 µM (inactive)	39.1 µM (inactive)	> 100 µM (inactive)	> 100 µM (inactive)
CN(C)CCCNC(=O)c1c(-c2cccnc2)cnc2ccccc12	> 100 µM (inactive)	> 100 µM (inactive)	> 100 µM (inactive)	61.9 µM (inactive)	> 100 µM (inactive)	> 100 µM (inactive)	> 100 µM (inactive)	> 100 µM (inactive)	> 100 µM (inactive)	> 100 µM (inactive)	> 100 µM (inactive)	> 100 µM (inactive)	> 100 µM (inactive)	> 100 µM (inactive)		> 100 µM (inactive)	> 100 µM (inactive)	> 100 µM (inactive)	> 100 µM (inactive)	> 100 µM (inactive)
CC(C)(CO)NC(=O)c1cccc(C(=O)NC(C)(C)CO)c1Br	> 100 µM (inactive)	> 100 µM (inactive)	> 100 µM (inactive)	> 100 µM (inactive)	> 100 µM (inactive)	> 100 µM (inactive)	> 100 µM (inactive)	> 100 µM (inactive)	> 100 µM (inactive)	> 100 µM (inactive)	> 100 µM (inactive)			> 100 µM (inactive)	> 100 µM (inactive)		> 100 µM (inactive)	> 100 µM (inactive)	> 100 µM (inactive)	
CC1(C)O[C@H]2OC(CO)C(OS(C)(=O)=O)[C@H]2O1 (stereo not given in full)	> 100 µM (inactive)		> 100 µM (inactive)	> 100 µM (inactive)	> 100 µM (inactive)	> 100 µM (inactive)	> 100 µM (inactive)	> 100 µM (inactive)	> 100 µM (inactive)	> 100 µM (inactive)	> 100 µM (inactive)	> 100 µM (inactive)	> 100 µM (inactive)	> 100 µM (inactive)	> 100 µM (inactive)		> 10 µM (inactive)	> 100 µM (inactive)		> 100 µM (inactive)
COC(C/C(=C/CO[Si](C(C)C)(C(C)C)C(C)C)C(=O)N(C(=O)OC(C)(C)C)c1ccccc1I)OC	37.6 µM (inactive)	> 100 µM (inactive)	28.8 µM (inactive)	56.2 µM (inactive)	59.3 µM (inactive)	67.5 µM (inactive)	39.7 µM (inactive)		> 100 µM (inactive)		67.3 µM (inactive)	29.2 µM (inactive)	> 10 µM (inactive)	56.4 µM (inactive)	18.2 µM (inactive)	> 100 µM (inactive)	44.6 µM (inactive)	11.8 µM (inactive)	> 100 µM (inactive)	52 µM (inactive)
CC(C)c1ccccc1SC1CC(=O)CC(Sc2ccccc2C(C)C)C12O[C@H](c1ccccc1)[C@@H](c1ccccc1)O2 (stereo not given in full)	20.3 µM (inactive)		> 100 µM (inactive)	35.6 µM (inactive)	39.2 µM (inactive)	71.6 µM (inactive)	36.8 µM (inactive)	> 100 µM (inactive)	35.4 µM (inactive)	57.1 µM (inactive)	38.5 µM (inactive)	32.2 µM (inactive)	13.4 µM (inactive)	> 100 µM (inactive)	30.1 µM (inactive)	> 100 µM (inactive)	61.9 µM (inactive)	32.7 µM (inactive)		22.6 µM (inactive)
NCCCn1c(Cl)nc2ccccc21	> 100 µM (inactive)	> 100 µM (inactive)	> 100 µM (inactive)	> 100 µM (inactive)	> 100 µM (inactive)	> 100 µM (inactive)	> 100 µM (inactive)	> 100 µM (inactive)	> 100 µM (inactive)		> 100 µM (inactive)	> 100 µM (inactive)	> 100 µM (inactive)	> 100 µM (inactive)	> 100 µM (inactive)	> 100 µM (inactive)	> 100 µM (inactive)	> 100 µM (inactive)	> 100 µM (inactive)	> 100 µM (inactive)
CCC1CN2CCc3cc(OC)c(OC)cc3C2CC1CC1c2cc(OC)c(OC)cc2CCN1C(=O)C(N)Cc1ccccc1.[O-][Cl+3]([O-])([O-])O (stereo not given)	2.06 µM (inactive)	0.238 µM (active)	1.6 µM (inactive)	2.12 µM (inactive)	0.49 µM (active)		2.42 µM (inactive)	1.26 µM (inactive)	1.97 µM (inactive)	2.56 µM (inactive)	3.32 µM (inactive)	4.16 µM (inactive)	0.41 µM (active)	1.85 µM (inactive)	0.386 µM (active)	4.65 µM (inactive)		0.305 µM (active)		2.35 µM (inactive)
CSC(=S)N(C)c1nc(N(C)C)s[s+]1	> 100 µM (inactive)	> 100 µM (inactive)	51.5 µM (inactive)	> 100 µM (inactive)	> 100 µM (inactive)		> 100 µM (inactive)	> 100 µM (inactive)	> 100 µM (inactive)	> 100 µM (inactive)	> 100 µM (inactive)		> 100 µM (inactive)	> 100 µM (inactive)		> 100 µM (inactive)	> 100 µM (inactive)	> 100 µM (inactive)	> 100 µM (inactive)	> 100 µM (inactive)
O=C1/C(=C/c2ccc(C(=O)O)cc2)CNC/C1=C\c1ccc(C(=O)O)cc1	> 100 µM (inactive)	> 100 µM (inactive)	> 100 µM (inactive)	> 100 µM (inactive)		> 100 µM (inactive)	> 100 µM (inactive)		> 100 µM (inactive)	> 100 µM (inactive)	> 100 µM (inactive)	> 100 µM (inactive)	> 100 µM (inactive)			> 100 µM (inactive)	> 100 µM (inactive)	> 100 µM (inactive)	> 100 µM (inactive)	> 100 µM (inactive)
C=C1CC(OC)(C(OC)C(=O)N(C)[C@H]2OCO[C@H]3C2O[C@H](C[C@@H](COC)OC)C(C)(C)C3OC)O[C@H](C)[C@@H]1C (stereo not given in full)	10.6 µM (inactive)	13.6 µM (inactive)	16 µM (inactive)	> 9.16 µM (inactive)	14 µM (inactive)	8.97 µM (inactive)	9.57 µM (inactive)	17 µM (inactive)	8.43 µM (inactive)	14.2 µM (inactive)	8.18 µM (inactive)	10 µM (inactive)	7.71 µM (inactive)	8.97 µM (inactive)	5.68 µM (inactive)		3.61 µM (inactive)	9.44 µM (inactive)	6.19 µM (inactive)	22.5 µM (inactive)
CN1CCC(c2c(O)cc(O)c3c(=O)cc(-c4ccccc4Cl)oc23)C(O)C1 (stereo not given)	0.0615 µM (active)	0.259 µM (active)	0.0607 µM (active)	0.0344 µM (active)	0.0339 µM (active)	0.0811 µM (active)	0.0557 µM (active)	< 0.0395 µM (active)	0.0352 µM (active)	0.0929 µM (active)	0.0735 µM (active)		0.0271 µM (active)	0.0526 µM (active)	0.0173 µM (active)	0.571 µM (active)	0.124 µM (active)	< 0.01 µM (active)	0.0336 µM (active)	0.143 µM (active)
